Test results from paper PMC6882468 (Journal of Enzyme Inhibition and Medicinal Chemistry, 2019).

Key:
[1] = system: NF-κB activation in RAW264.7 cells; experiment: Western blot of LPS-induced NF-κB activation; format: cell-based, Murine; settings: RAW264.7, 2-h pre-treatment before LPS stimulation
Description: The cell in 96-well plates were treated as described above and then stimulated with LPS (200 ng/mL) for 24 h. The cells were harvested and lysed in an extraction lysis buffer (Beyotime Biotechnology, Shanghai, China) containing protease inhibitors. The protein concentration was determined using a BCA protein assay kit (Thermo Scientific, 23227). The whole cell lysates were separated by 10% sodium dodecyl sulphate-polyacrylamide gel electrophoresis and transferred to a nitrocellulose membrane. Each membrane was incubated with Tris-buffered saline (pH 7.6, containing 0.05% Tween-20 and 5% non-fat milk). The nitrocellulose membrane was incubated with the primary antibody against p-JNK1/2, JNK1/2, p-p38, p38, p-ERK1/2, ERK1/2, IκBa, NF-κB p65, COX-2, iNOS or β-Actin (Abcam, Cambridge, UK). Immunoreactive bands were detected by incubating with horseradish peroxidase-conjugated secondary antibodies, and visualised using enhanced chemiluminescence reagents (Bio-Rad, Hercules, CA).
Figure 5. Compound 6n inhibited LPS-induced NF-κB activation in RAW264.7 cells. […] The levels of NF-κB p65, IκB, and their phosphorylated forms were analysed using western blot.

p38α = system: p38α; design: method as in PMID 17664068; settings: Figure 1; cited from earlier work
COX-1 = molecular target: T1, COX-1 (Ovis aries, UniProt P05979); experiment: COX-1 inhibition assay in vitro (COX Inhibitor Screening Kit, fluorometric); format: biochemical
T1 construct: purchased BioVision, Inc
T1 sequence (P05979 25-600): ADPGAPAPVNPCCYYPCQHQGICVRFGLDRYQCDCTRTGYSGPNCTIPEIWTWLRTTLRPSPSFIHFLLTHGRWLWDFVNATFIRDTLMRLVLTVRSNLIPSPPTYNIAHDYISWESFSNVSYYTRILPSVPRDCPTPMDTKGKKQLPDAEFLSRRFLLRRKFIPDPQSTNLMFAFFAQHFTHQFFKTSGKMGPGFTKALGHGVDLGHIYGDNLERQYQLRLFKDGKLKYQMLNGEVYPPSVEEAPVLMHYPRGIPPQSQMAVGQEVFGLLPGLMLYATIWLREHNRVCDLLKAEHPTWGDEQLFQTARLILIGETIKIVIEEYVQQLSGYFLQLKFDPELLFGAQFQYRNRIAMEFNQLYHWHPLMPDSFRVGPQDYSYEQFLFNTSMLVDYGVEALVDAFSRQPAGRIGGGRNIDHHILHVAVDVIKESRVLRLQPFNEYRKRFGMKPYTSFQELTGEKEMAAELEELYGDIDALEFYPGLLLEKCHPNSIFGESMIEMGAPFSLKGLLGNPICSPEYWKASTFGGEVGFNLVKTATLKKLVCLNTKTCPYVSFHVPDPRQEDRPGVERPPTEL
Description: Simply, different concentrations of the test compound solution were added to the mixed solution containing COX-1/COX-2 enzyme (10 µL) and Assay Buffer (960 µL, 0.1 M Tris-HCl pH 8.0 containing 5 µM EDTA and 2 µM phenol). […] The IC50 values were calculated as described above.

[2] = system: DNFB-induced mouse model of allergic contact dermatitis; experiment: DNFB-induced mouse model of allergic contact dermatitis (ear swelling); format: in vivo, Male ICR mice; settings: for Swelling degree / Inhibition (%) of ear swelling: mice; for Swelling degree: Mean ± SD, n = 6; for Inhibition (%) of ear swelling: vs model group; for in vivo inhibitory activity, in words: p.o. 5 mg/kg, p < 0.01
Description: Male ICR mice (20 ± 2 g) were obtained from the Experimental Animal Centre of Anhui Medical University (Hefei, China). The mice reared in a pathogen-free setting (23 ± 2 °C, 55 ± 5% humidity) with free access to water and pelleted food throughout the experimental cycle. All experimental procedures performed in accordance with guide for the Care and Use of Laboratory Animals (National Research Council, 1996) and were approved by the Experimental Animal Ethics Committee of Anhui University of Chinese Medicine (Hefei, China). After 7 days acclimatisation, the mice were randomly divided into control group, ACD model group, dexamethasone positive control group and 20 compound groups, six in each group. The control group and the model group were given the same dose of the vehicle, the positive control group was given dexamethasone 0.5 mg/kg, and the test compound groups were given compound 5 mg/kg, all of which were given by intragastric administration and were administered once a day for 6 days. Except for the control group, the 50 µL of 1% DNFB (in acetone/olive oil 4:1) was administered to the stripped epidermis, and repeated the next day. After 6 days of drug treatment, 10 µL of 1% DNFB acetone olive oil solution was applied on both sides of the right ear to stimulate inflammation, and equivalent acetone olive oil solution was applied on the left ear for comparison. […] Calculation was carried out according to the following equations. Swelling degree (mg) = MR – ML Inhibitory rate of ear swelling (%)=((MR – ML) model – (MR – ML) treated)/(MR – ML) model ×100% MR=Average weight of the right ear slices;ML= Average weight of the left ear slices […] Dexamethasone (DEX) at a p.o. dose of 0.5 mg/kg was employed as the positive control. After the mice were sacrificed, the swelling degree and inhibition rate were calculated by weighing the same part of both ears.

COX-2 = molecular target: T2, COX-2 (Homo sapiens, UniProt P35354); experiment: COX-2 inhibition assay in vitro (COX Inhibitor Screening Kit, fluorometric); settings: for SI (COX-1/COX-2): IC50 (COX-1)/IC50 (COX-2)
T2 sequence (P35354 18-604): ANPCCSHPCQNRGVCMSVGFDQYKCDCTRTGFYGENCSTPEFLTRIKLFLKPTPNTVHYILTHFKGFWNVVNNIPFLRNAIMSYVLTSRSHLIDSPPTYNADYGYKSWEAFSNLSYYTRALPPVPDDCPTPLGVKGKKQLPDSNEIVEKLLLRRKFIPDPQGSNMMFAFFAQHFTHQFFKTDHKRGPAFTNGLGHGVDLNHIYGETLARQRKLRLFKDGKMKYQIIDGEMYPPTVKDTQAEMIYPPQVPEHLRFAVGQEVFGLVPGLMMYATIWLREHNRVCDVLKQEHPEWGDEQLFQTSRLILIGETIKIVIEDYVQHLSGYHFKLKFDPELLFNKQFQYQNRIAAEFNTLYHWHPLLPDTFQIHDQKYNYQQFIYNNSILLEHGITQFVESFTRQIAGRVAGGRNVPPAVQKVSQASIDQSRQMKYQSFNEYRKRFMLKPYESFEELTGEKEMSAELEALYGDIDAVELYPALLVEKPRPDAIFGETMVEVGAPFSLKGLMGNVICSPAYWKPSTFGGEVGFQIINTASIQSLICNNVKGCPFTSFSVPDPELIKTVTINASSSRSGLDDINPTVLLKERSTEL

p38α MAPK = p38α MAPK (Homo sapiens, UniProt Q16539); experiment: p38α MAPK inhibition assay in vitro; format: biochemical; settings: triplicate, read-out: IC50 p38p
p38α MAPK, sequence (Q16539 whole entry): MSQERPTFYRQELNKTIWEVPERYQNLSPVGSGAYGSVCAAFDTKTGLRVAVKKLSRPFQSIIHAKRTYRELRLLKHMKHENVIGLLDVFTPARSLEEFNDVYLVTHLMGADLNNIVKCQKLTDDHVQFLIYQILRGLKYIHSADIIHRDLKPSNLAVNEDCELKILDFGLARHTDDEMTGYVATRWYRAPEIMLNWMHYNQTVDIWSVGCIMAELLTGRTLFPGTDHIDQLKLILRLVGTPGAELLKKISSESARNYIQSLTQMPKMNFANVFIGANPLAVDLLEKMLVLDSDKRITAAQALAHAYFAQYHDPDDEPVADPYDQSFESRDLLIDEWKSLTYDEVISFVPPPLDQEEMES
Description: In brief, after mixing the enzyme reagent with the sample, a reaction mixture containing 200 µM biotin-peptide substrate and 600 µM ATP (+100 µCi/mL γ-^32 P-ATP) was added to initiate the reaction. […] Part of the reaction solution was transferred to the well of a streptavidin-coated flash plate, washed in PBS containing 0.01% Tween and sealed. The average value of counts per minute for each group and the IC50 value was calculated.
The average fluorescence values of each well were calculated and recorded as RFU (Relative Fluorescence Unit) blank control (RFU blank), RFU 100% enzyme activity control (RFU enzyme), RFU positive drug control (RFU drug) and RFU test compound (RFU compound). The inhibition rate is calculated according to the following formula. Inhibition rate (%)= (RFU (enzyme) – RFU (compound/drug) […]) /(RFU (enzyme) – RFU (blank)) * 100%
The IC50 value of the test compound was calculated by the concentration-inhibition reaction curve and the assays were performed in triplicate.

[3] = 5 mg/kg intragastric once a day for 6 days, ear slices weighed 24 h after DNFB challenge
[4] = 5 mg/kg intragastric once a day for 6 days
[5] = positive control 0.5 mg/kg intragastric once a day for 6 days

Compound: Cc1ccc(S(=O)(=O)/C=C/C#N)cc1 [Bay 11e7082, reference compound]
- LPS-induced IκB phosphorylation [1]: markedly decreased
- accumulation of NF-κB p65 subunit in the nucleus [1]: lowered
- cytosolic IκB [1]: increased

Compound: COc1cc2[nH]ccc2cc1C(=O)N1CCN(Cc2ccccc2)CC1 [Compound 2]
- IC50 (p38α): 0.95 µM

Compound: CC(=O)c1ccccc1C(=O)N1CCN(Cc2cccc([N+](=O)[O-])c2)CC1 [Compound 6f, 1–(2-(4–(3-Nitrobenzyl)piperazine-1-carbonyl)phenyl)ethan-1-one]
- IC50 (COX-1): 1.19 ± 0.08 µM
- Swelling degree [2, 3]: 9.9 ± 2.9 mg
- Inhibition (%) of ear swelling [2, 4]: 39.6%
- in vivo inhibitory activity, in words [2]: significant inhibitory activity
- IC50 (COX-2): 0.842 ± 0.062 µM
- SI (COX-1/COX-2) (COX-2): 1.41
- IC50 (p38α MAPK): 3.41 ± 0.22 µM

Compound: CC(=O)c1ccccc1C(=O)N1CCN(Cc2ccc(F)cc2)CC1 [Compound 6j, 1–(2-(4–(4-Fluorobenzyl)piperazine-1-carbonyl)phenyl)ethan-1-one]
- IC50 (COX-1): 4.23 ± 0.23 µM
- Swelling degree [2, 3]: 10.4 ± 3.1 mg
- Inhibition (%) of ear swelling [2, 4]: 36.6%
- in vivo inhibitory activity, in words [2]: significant inhibitory activity
- IC50 (COX-2): 0.022 ± 0.003 µM
- SI (COX-1/COX-2) (COX-2): 192.27
- IC50 (p38α MAPK): 8.49 ± 0.57 µM

Compound: CC(=O)c1ccccc1C(=O)N1CCN(Cc2ccc3c(c2)OCCO3)CC1 [Compound 6q, 1–(2-(4-((2,3-Dihydrobenzo[b][1,4]dioxin-6-yl)methyl)piperazine-1-carbonyl)phenyl)ethan-1-one]
- Swelling degree [2, 3]: 13.3 ± 2.6 mg
- Inhibition (%) of ear swelling [2, 4]: 18.9%

Compound: CC(=O)c1ccccc1C(=O)N1CCN(Cc2nc(C)c(C)nc2C)CC1 [Compound 6r, 1–(2-(4-((3,5,6-Trimethylpyrazin-2-yl)methyl)piperazine-1-carbonyl)phenyl)ethan-1-one]
- Swelling degree [2, 3]: 10.8 ± 3.5 mg
- Inhibition (%) of ear swelling [2, 4]: 34.1%

Compound: CC(=O)c1ccccc1C(=O)N1CCN(Cc2ccncc2)CC1 [Compound 6s, 1–(2-(4-(Pyridin-4-ylmethyl)piperazine-1-carbonyl)phenyl)ethan-1-one]
- Swelling degree [2, 3]: 12.9 ± 3.4 mg
- Inhibition (%) of ear swelling [2, 4]: 21.3%

Compound: C[C@@H]1C[C@H]2[C@@H]3CCC4=CC(=O)C=C[C@]4(C)[C@@]3(F)[C@@H](O)C[C@]2(C)[C@@]1(O)C(=O)CO [DEX, Dexamethasone, reference compound]
- Inhibition (%) of ear swelling [2, 5]: 51.8%
- Swelling degree [2, 5]: 7.9 ± 3.0 mg
